Measured values as given in paper PMC11167047 (Cell Death Discovery, 2024).

Key:
Test in all cases: kinome screen (33PanQinase)
Type in all cases: biochemical
[1] = biological target: T1, EPHA8 (Homo sapiens, UniProt P29322)
T1 construct: purchased Reaction Biology Europe GmbH (formerly ProQinase)
T1 sequence (P29322 28-1005): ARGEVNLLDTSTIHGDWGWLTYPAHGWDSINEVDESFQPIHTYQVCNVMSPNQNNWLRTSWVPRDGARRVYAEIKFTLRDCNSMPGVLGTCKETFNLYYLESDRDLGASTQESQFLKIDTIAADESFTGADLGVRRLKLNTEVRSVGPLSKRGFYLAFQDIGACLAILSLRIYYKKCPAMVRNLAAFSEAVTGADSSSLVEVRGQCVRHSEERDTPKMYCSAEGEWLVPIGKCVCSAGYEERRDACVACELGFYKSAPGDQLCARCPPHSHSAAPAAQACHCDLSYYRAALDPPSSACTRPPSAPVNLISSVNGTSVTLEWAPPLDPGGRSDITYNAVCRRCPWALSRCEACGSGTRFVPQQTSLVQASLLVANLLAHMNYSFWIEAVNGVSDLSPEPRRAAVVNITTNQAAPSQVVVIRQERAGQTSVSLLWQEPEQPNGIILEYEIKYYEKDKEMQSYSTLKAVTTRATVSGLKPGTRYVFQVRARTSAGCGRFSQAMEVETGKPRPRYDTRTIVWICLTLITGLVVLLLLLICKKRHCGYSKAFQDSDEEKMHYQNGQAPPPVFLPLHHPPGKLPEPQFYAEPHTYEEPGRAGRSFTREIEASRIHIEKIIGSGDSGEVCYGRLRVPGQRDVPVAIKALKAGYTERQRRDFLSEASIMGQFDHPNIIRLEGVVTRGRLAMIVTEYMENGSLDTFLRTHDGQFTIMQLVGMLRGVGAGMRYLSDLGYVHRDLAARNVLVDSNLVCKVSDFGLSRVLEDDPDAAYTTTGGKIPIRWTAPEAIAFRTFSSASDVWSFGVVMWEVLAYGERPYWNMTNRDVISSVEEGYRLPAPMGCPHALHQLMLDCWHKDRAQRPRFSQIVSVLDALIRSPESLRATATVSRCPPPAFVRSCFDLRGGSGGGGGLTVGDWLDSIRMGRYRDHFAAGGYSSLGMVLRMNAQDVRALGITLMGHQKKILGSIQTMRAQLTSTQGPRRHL
Protocol: (§1) The Kinome Screening was performed by Reaction Biology Europe GmbH (http://reactionbiology.com; Freiburg i. Br., Germany).

[2] = biological target: T2, PKCγ (Homo sapiens, UniProt P05129)
T2 construct: purchased Reaction Biology Europe GmbH (formerly ProQinase)
Protocol: as §1

[3] = biological target: T3, DYRK2 (Homo sapiens, UniProt Q92630)
T3 construct: purchased Reaction Biology Europe GmbH (formerly ProQinase)
T3 sequence (Q92630 1-601): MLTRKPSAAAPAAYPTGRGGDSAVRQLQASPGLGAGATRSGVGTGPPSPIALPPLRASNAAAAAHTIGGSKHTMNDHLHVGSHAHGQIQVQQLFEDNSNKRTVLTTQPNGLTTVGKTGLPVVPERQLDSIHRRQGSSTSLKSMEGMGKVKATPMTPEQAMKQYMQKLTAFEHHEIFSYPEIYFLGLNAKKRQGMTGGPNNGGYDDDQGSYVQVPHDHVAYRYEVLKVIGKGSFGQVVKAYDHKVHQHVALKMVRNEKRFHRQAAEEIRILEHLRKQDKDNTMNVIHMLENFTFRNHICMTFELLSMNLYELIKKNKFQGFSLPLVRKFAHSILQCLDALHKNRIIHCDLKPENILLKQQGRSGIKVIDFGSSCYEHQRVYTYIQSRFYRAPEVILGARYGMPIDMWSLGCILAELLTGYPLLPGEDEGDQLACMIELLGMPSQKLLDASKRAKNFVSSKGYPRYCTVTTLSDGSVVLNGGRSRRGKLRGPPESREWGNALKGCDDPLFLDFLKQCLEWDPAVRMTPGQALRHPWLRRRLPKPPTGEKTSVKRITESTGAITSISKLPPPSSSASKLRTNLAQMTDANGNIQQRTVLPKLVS
Protocol: as §1

[4] = biological target: T4, EPHA1 (Homo sapiens, UniProt P21709)
T4 construct: purchased Reaction Biology Europe GmbH (formerly ProQinase)
T4 sequence (P21709 26-976): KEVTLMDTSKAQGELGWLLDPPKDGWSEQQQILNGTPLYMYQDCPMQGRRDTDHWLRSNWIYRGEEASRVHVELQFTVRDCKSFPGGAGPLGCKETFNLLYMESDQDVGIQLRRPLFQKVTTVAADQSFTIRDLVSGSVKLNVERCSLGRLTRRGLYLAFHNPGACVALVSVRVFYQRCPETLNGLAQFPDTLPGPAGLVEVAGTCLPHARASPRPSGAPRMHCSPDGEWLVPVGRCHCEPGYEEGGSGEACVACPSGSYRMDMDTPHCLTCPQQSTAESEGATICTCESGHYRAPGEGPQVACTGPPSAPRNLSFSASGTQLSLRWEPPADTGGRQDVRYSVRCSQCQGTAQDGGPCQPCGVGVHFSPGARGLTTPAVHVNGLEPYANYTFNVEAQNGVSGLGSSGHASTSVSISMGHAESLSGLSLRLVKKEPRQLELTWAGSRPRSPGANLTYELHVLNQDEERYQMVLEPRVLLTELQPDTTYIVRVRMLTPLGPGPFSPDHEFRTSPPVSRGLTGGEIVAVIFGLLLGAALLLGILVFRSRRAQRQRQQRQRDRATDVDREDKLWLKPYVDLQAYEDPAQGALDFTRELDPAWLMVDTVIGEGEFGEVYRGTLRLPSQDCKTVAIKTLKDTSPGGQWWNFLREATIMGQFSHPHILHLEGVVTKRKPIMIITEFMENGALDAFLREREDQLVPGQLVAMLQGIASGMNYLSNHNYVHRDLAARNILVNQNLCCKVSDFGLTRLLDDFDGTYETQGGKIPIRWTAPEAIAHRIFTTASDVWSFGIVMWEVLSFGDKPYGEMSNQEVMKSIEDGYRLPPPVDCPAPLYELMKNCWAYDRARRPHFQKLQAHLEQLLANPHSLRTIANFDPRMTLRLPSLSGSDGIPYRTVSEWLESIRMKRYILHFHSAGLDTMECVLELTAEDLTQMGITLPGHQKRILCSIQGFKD
Protocol: as §1

[5] = biological target: T5, CK1γ3 (Homo sapiens, UniProt Q9Y6M4)
T5 construct: purchased Reaction Biology Europe GmbH (formerly ProQinase)
T5 sequence (Q9Y6M4 whole entry): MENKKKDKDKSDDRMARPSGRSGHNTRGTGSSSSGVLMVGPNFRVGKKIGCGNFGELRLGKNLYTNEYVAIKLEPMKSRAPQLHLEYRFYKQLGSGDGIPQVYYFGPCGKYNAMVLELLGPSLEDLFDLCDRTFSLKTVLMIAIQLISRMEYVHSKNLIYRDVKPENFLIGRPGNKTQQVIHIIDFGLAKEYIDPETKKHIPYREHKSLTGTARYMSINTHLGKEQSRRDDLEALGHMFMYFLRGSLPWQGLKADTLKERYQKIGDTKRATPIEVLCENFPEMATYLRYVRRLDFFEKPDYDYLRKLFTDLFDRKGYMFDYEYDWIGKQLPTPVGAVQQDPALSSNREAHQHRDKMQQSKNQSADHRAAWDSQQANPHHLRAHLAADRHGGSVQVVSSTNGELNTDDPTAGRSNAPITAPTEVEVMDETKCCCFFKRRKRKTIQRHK
Protocol: as §1

[6] = biological target: T6, TTBK1 (Homo sapiens, UniProt Q5TCY1)
T6 construct: purchased Reaction Biology Europe GmbH (formerly ProQinase)
T6 sequence (Q5TCY1 whole entry): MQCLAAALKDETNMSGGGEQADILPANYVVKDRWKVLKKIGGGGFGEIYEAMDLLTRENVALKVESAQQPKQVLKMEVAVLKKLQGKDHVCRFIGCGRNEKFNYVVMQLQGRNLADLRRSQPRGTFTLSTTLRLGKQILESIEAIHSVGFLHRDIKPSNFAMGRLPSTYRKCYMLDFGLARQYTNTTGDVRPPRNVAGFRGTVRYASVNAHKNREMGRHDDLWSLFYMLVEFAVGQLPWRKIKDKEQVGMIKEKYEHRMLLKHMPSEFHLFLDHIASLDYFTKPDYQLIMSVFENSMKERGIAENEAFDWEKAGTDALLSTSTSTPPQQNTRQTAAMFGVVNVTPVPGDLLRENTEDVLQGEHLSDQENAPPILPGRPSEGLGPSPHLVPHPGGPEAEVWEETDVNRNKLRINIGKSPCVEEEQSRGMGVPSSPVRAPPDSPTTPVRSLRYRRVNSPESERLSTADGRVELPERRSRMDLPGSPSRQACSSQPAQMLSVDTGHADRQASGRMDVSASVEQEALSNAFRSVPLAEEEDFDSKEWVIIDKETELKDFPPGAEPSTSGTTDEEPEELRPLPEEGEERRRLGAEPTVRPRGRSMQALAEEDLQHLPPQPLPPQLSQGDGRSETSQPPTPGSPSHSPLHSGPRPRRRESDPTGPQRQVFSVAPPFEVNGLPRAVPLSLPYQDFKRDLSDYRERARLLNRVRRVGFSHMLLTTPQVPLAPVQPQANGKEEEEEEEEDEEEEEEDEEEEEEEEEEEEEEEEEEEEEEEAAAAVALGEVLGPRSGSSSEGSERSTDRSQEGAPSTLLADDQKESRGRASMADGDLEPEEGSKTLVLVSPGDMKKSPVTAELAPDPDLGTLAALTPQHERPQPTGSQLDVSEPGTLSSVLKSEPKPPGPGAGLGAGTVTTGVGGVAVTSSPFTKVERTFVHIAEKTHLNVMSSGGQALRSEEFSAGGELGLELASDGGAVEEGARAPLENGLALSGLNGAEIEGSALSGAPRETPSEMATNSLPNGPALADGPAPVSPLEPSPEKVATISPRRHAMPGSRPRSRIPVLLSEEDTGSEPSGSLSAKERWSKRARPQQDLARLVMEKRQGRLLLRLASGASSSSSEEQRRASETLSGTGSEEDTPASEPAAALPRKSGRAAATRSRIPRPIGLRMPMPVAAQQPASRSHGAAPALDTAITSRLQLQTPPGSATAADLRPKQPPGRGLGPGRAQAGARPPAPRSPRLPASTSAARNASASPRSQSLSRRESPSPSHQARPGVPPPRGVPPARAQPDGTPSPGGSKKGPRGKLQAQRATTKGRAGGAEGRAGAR
Protocol: as §1

Compound	residual kinase activity ([1]; 0.03 µM)	residual kinase activity ([1]; 0.3 µM)	residual kinase activity ([2]; 0.03 µM)	residual kinase activity ([2]; 0.3 µM)	residual kinase activity ([3]; 0.03 µM)	residual kinase activity ([3]; 0.3 µM)	residual kinase activity ([4]; 0.03 µM)	residual kinase activity ([4]; 0.3 µM)	residual kinase activity ([5]; 0.03 µM)	residual kinase activity ([5]; 0.3 µM)	residual kinase activity ([6]; 0.03 µM)	residual kinase activity ([6]; 0.3 µM)	residual kinase activity ([1]; 3 µM)	residual kinase activity ([2]; 3 µM)	residual kinase activity ([3]; 3 µM)	residual kinase activity ([4]; 3 µM)	residual kinase activity ([5]; 3 µM)	residual kinase activity ([6]; 3 µM)
COc1ccnc2[nH]cc(-c3cc(N)nc(N)c3)c12 [meriolin 16]	119 % of control	107 % of control	99 % of control	54 % of control	6 % of control	1 % of control	128 % of control	116 % of control	77 % of control	22 % of control	116 % of control	108 % of control						
c1ccc(CNc2cc(-c3c[nH]c4ncccc34)ccn2)cc1 [meriolin 36]		113 % of control		33 % of control		31 % of control		127 % of control		49 % of control		101 % of control	94 % of control	5 % of control	4 % of control	126 % of control	9 % of control	77 % of control
